Data on three molecules can be found in PMC5794219 (SLAS discovery : advancing life sciences R & D, 2017).

The subject of one data set is E. coli HisRS. The settings on record: cited from earlier work.
The next data set has as its target T1, P. aeruginosa HisRS (Pseudomonas aeruginosa, UniProt Q9HXJ5).
T1 sequence (Q9HXJ5 1-429): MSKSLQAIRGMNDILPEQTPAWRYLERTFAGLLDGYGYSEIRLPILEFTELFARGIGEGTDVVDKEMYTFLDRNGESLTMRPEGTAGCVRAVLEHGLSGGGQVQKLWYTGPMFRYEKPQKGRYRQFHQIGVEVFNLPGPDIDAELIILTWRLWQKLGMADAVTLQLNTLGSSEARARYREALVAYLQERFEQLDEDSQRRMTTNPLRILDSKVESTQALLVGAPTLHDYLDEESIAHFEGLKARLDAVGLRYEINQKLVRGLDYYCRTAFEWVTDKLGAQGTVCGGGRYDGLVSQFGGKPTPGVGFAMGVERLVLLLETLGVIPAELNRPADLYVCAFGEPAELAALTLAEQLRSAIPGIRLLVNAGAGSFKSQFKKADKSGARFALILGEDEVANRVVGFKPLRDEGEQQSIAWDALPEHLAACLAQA
The data set is described as follows: ATP:PPi exchange reactions. The class given is biochemical. The settings on record: substrate varied, other substrate constant at 2 mM.

Substrate in data set [1]: N[C@@H](Cc1c[nH]cn1)C(=O)O
The data set is described as follows: ATP:PPi exchange reactions. The data set is classed as biochemical, Pseudomonas aeruginosa. The settings on record: other: substrate varied, other substrate constant at 2 mM; pH 7.5; 37.0 °C.

Substrate in data set [2]: Nc1ncnc2c1ncn2[C@@H]1O[C@H](COP(=O)(O)OP(=O)(O)OP(=O)(O)O)[C@@H](O)[C@H]1O
The data set is described as follows: ATP:[32P]PPi exchange at pH 7.5, 37 °C, 0.05 µM HisRS, ATP varied. The class given is biochemical.

In the case of `N[C@@H](Cc1c[nH]cn1)C(=O)O` [histidine], in the data set with E. coli HisRS (E. coli HisRS, interaction with His, different research groups ref 24, 25), the turnover is 7 to 142 s⁻¹.
For `Nc1ncnc2c1ncn2[C@@H]1O[C@H](COP(=O)(O)OP(=O)(O)OP(=O)(O)O)[C@@H](O)[C@H]1O` [ATP], the figures for the Km in the data set with E. coli HisRS (E. coli HisRS ref 12) and at P. aeruginosa HisRS were 890 µM and 298 µM, respectively. Moreover, the kcat with E. coli HisRS (E. coli HisRS, interaction with ATP ref 24) was 34 s⁻¹. Further, the “kcat (turnover number)” value on P. aeruginosa HisRS was determined as 16.8 s⁻¹.

B1: P. aeruginosa HisRS (Pseudomonas aeruginosa PAO1) (protein)
chain: T1 sequence (Q9HXJ5 1-429)
Consider B1, for which, in data set [1], the Km was found to be 37.6 µM and the kcat is 8.32 s⁻¹. Moreover, the Km in data set [2] is 298.5 µM.

One may read the Km as the concentration of substrate that gives half-maximal velocity. A word on the kcat: it is the number of substrate molecules converted per active site and unit of time at saturation.
